Test results taken from patent publication US20230339970A1, “CASEIN KINASE 1 DELTA MODULATORS” (priority 2020, published 2023).

Legend:
[1] = molecular target: T1, human recombinant GST cleaved CSNK1D (Homo sapiens, UniProt P48730); assay: Purified Enzyme Assay (ADP-Glo CSNK1D Kinase Assay); type: biochemical; conditions: 2 nM CSNK1D; peptide substrate 150 μM; ATP 20 μM; 45 minutes at room temperature
T1 construct: GST (cleaved yes); purchased University of Dundee clone DU 19064
In short: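 Percent activity derived from ADP-Glo quantification of ADP produced. Reactions: compound dose-response with human recombinant GST-cleaved CSNK1D, ATP and substrate peptide PLSRTL-pS-VASLPGL, incubated 45 min at room temperature.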

human CSNK1D = molecular target: T2, human CSNK1D (Homo sapiens, UniProt P48730); assay: Whole Cell nBRET CSNK1D Binding Assay; conditions: living CHO cells stably expressing human CSNK1D tagged with nanoluciferase; NanoBret tracer 130 nM; 2 hours at 37 C
T2 construct: expressed in transfected cells
T2 sequence (P48730 whole entry): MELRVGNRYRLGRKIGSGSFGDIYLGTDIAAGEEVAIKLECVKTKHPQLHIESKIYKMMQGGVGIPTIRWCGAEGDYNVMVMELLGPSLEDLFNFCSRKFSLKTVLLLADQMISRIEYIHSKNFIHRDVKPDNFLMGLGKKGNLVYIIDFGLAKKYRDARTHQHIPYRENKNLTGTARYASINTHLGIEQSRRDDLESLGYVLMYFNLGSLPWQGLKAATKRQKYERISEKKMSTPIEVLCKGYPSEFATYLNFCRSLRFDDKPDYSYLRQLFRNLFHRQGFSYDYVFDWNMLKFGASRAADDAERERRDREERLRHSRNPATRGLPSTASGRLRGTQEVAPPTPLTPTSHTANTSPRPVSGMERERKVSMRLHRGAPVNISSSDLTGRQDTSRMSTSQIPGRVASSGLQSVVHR

T1 sequence (P48730 whole entry): as above

SMILES | IC50 [1] [nM] | IC50 (human CSNK1D) [nM]
Fc1ccc(-c2nn3c(c2-c2c(F)cnc4[nH]ncc24)OC[C@H]2C[C@H]2C3)nc1 (stereo in doubt) [Example 481, (5a*S,6a*R)-3-(5-Fluoro-1H-pyrazolo[3,4-b]pyridin-4-yl)-2-(5-fluoropyridin-2-yl)-5a,6,6a,7-tetrahydro-5H-cyclopropa[e]pyrazolo[5,1-b][1,3]oxazepine] | 6 | 65
Fc1ccc(-c2nn3c(c2-c2ccnc4[nH]ncc24)OCCC3)nc1 [Example 186, 2-(5-Fluoropyridin-2-yl)-3-(1H-pyrazolo[3,4-b]pyridin-4-yl)-6,7-dihydro-5H-pyrazolo[5,1-b][1,3]oxazine] | 9 | 257
Cc1cc(-c2c(-c3nccs3)nn3c2CCCC3)c2cn[nH]c2n1 [Example 30, 2-(3-(6-Methyl-1H-pyrazolo[3,4-b]pyridin-4-yl)-4,5,6,7-tetrahydropyrazolo[1,5-a]pyridin-2-yl)thiazole] | 28 | 762
Fc1cncc(-c2nn3c(c2-c2ccnc4[nH]ncc24)COCC3)c1 [Example 76, 2-(5-Fluoro-3-pyridyl)-3-(1H-pyrazolo[3,4-b]pyridin-4-yl)-6,7-dihydro-4H-pyrazolo[5,1-c][1,4]oxazine] | 168 | 2930
Cc1cc(-c2c(-c3ccc(F)cc3)nn3c2COC[C@H]3C)c2cn[nH]c2n1 (single isomer, unassigned) [Example 94, (*R)-2-(4-Fluorophenyl)-7-methyl-3-(6-methyl-1H-pyrazolo[3,4-b]pyridin-4-yl)-6,7-dihydro-4H-pyrazolo[5,1-c][1,4]oxazine] | 7 | 92
Cc1cc(-c2c(-c3ccc(F)cn3)nn3c2CCCC3)c2cn[nH]c2n1 [Example 36, 4-[2-(5-Fluoro-2-pyridyl)-4,5,6,7-tetrahydropyrazolo[1,5-a]pyridin-3-yl]-6-methyl-1H-pyrazolo[3,4-b]pyridine] | 6 | 133
[2H]C([2H])([2H])C1(C([2H])([2H])[2H])Cn2nc(-c3ccc(F)cn3)c(-c3ccnc4[nH]nc(F)c34)c2CO1 [Example 398, 3-(3-Fluoro-1H-pyrazolo[3,4-b]pyridin-4-yl)-2-(5-fluoropyridin-2-yl)-6,6-bis(methyl-d3)-6,7-dihydro-4H-pyrazolo[5,1-c][1,4]oxazine] | 3 | 29
Fc1ccc(-c2nn3c(c2-c2ccnc4[nH]ncc24)COC2(C3)CC2(F)F)nc1 (single isomer, unassigned) [Example 434, (*S)-1′. 1′-Difluoro-2-(5-fluoro-2-pyridyl)-3-(1H-pyrazolo[3,4-b]pyridin-4-yl)spiro[4,7-dihydropyrazolo[5,1-c][1,4]oxazine-6,2′-cyclopropane]] | 165 | 8290
CC1(C)Cn2nc(-c3ccc(F)cn3)c(-c3cc(C4CC4)nc4[nH]ncc34)c2CO1 [Example 155, 3-(6-Cyclopropyl-1H-pyrazolo[3,4-b]pyridin-4-yl)-2-(5-fluoropyridin-2-yl)-6,6-dimethyl-6,7-dihydro-4H-pyrazolo[5,1-c][1,4]oxazine] | 8 | 172
CC1(C)COCc2c(-c3ccnc4[nH]ncc34)c(-c3ccc(F)cn3)nn21 [Example 122, 2-(5-Fluoro-2-pyridyl)-7,7-dimethyl-3-(1H-pyrazolo[3,4-b]pyridin-4-yl)-4,6-dihydropyrazolo[5,1-c][1,4]oxazine] | 120 | 3410
CC1(C)Cn2nc(-c3ccc(F)cn3)c(-c3ccn4ncc(N)c4c3)c2CO1 [Example 381, 5-[2-(5-Fluoro-2-pyridyl)-6,6-dimethyl-4,7-dihydropyrazolo[5,1-c][1,4]oxazin-3-yl]pyrazolo[1,5-a]pyridin-3-amine] | 64 | 228
Fc1ccc(-c2nn3c(c2-c2ccnc4[nH]ccc24)COCC3)cc1 [Example 69, 2-(4-Fluorophenyl)-3-(1H-pyrrolo[2,3-b]pyridin-4-yl)-6,7-dihydro-4H-pyrazolo[5,1-c][1,4]oxazine] | 7 | 43
[2H]C([2H])([2H])C1(C([2H])([2H])[2H])Cn2nc(-c3ccc(F)cn3)c(-c3cc(C)nc4[nH]nc(Cl)c34)c2CO1 [Example 405, 3-(3-Chloro-6-methyl-1H-pyrazolo[3,4-b]pyridin-4-yl)-2-(5-fluoropyridin-2-yl)-6,6-bis(methyl-d3)-6,7-dihydro-4H-pyrazolo[5,1-c][1,4]oxazine] | 5 | 14
Fc1ccc(-c2nn3c(c2-c2ccn4nccc4c2)OCC2(CC2)C3)cc1 [Example 466, 2′-(4-Fluorophenyl)-3′-(pyrazolo[1,5-a]pyridin-5-yl)-5′H,7′H-spiro[cyclopropane-1,6′-pyrazolo[5,1-b][1,3]oxazine]] | 12 | 24
Fc1ccc(-c2nn3c(c2-c2ccnc4[nH]ncc24)OCC2(C3)CC2(F)F)cc1 (single isomer, unassigned) [Example 476, (*S)-2,2-Difluoro-2′-(4-fluorophenyl)-3′-1H-pyrazolo[3,4-b]pyridin-4-yl)-5′H,7′H-spiro[cyclopropane-1,6′-pyrazolo[5,1-b][1,3]oxazine]] | 1 | 1
Fc1ccc(-c2nn3c(c2-c2ccnc4[nH]ncc24)C2CC2C3)cc1 (racemic) [Example 275, (Racemic) 2-(4-Fluorophenyl)-3-(1H-pyrazolo[3,4-b]pyridin-4-yl)-3b,4,4a,5-tetrahydrocyclopropa[3,4]pyrrolo[1,2-b]pyrazole] | 1 | 9
[2H]C([2H])([2H])[C@@]1(C(F)(F)F)Cn2nc(-c3ccc(F)cn3)c(-c3c(F)c(C)nc4[nH]nc(C)c34)c2CO1 (single isomer, unassigned) [Example 431, (*S)-3-(5-Fluoro-3,6-dimethyl-1H-pyrazolo[3,4-b]pyridin-4-yl)-2-(5-fluoropyridin-2-yl)-6-(methyl-d3)-6-(trifluoromethyl)-6,7-dihydro-4H-pyrazolo[5,1-c][1,4]oxazine] | 1580 | > 10000
CC1n2nc(-c3ccc(F)cn3)c(-c3ccnc4[nH]ncc34)c2COC1(C)C (single isomer, unassigned) [Example 174, (*S)-2-(5-Fluoropyridin-2-yl)-6,6,7-trimethyl-3-(1H-pyrazolo[3,4-b]pyridin-4-yl)-6,7-dihydro-4H-pyrazolo[5,1-c][1,4]oxazine] | 8 | 114
Fc1ccc(-c2nn3c(c2-c2ccnc4[nH]ncc24)[C@H](Cl)C[C@]2(C3)CC2(F)F)nc1 (single isomer, unassigned) [Example 338, (1*S,4′*R)-4′-Chloro-2,2-difluoro-2′-(5-fluoropyridin-2-yl)-3′-(1H-pyrazolo[3,4-b]pyridin-4-yl)-4′,5′-dihydro-7′H-spiro[cyclopropane-1,6′-pyrazolo[1,5-a]pyridine]] | 5 | 72
CC1CCCc2c(-c3ccnc4[nH]ncc34)c(-c3ccc(F)cc3)nn21 (single isomer, unassigned) [Example 39, (*R)-4-[2-(4-Fluorophenyl)-7-methyl-4,5,6,7-tetrahydropyrazolo[1,5-a]pyridin-3-yl]-1H-pyrazolo[3,4-b]pyridine] | 4 | 39
Cc1cc(-c2c(-c3ccc(F)cc3)nn3c2CC(F)(F)CC3)c2cn[nH]c2n1 [Example 47, 4-(5,5-Difluoro-2-(4-fluorophenyl)-4,5,6,7-tetrahydropyrazolo[1,5-a]pyridin-3-yl)-6-methyl-1H-pyrazolo[3,4-b]pyridine] | 11 | 79
CC[C@@]1(C)Cn2nc(-c3ccc(F)cn3)c(-c3ccnc4[nH]ncc34)c2CO1 (single isomer, unassigned) [Example 170, *S-6-Ethyl-2-(5-fluoropyridin-2-(l)-6-methyl-3-(1H-pyrazolo[3,4-b]pyridin-4-yl)-6,7-dihydro-4H-pyrazolo[5,1-c][1,4]oxazine] | 2 | 42
Cc1cc(-c2c(-c3ncc(F)cc3F)nn3c2COC(C)(C)C3)c2cn[nH]c2n1 [Example 167, 2-(3,5-Difluoropyridin-2-yl)-6,6-dimethyl-3-(6-methyl-1H-pyrazolo[3,4-b]pyridin-4-yl)-6,7-dihydro-4H-pyrazolo[5,1-c][1,4]oxazine] | 3 | 91
CC1COc2c(-c3ccnc4ccsc34)c(-c3ccc(F)cn3)nn2C1 (centres unmarked) [Example 195, 2-(5-Fluoropyridin-2-yl)-6-methyl-3-(thieno[3,2-b]pyridin-7-yl)-6,7-dihydro-5H-pyrazolo[5,1-b][1,3]oxazine] | 21 | 218
Fc1ccc(-c2nn3c(c2-c2ccnc4[nH]ccc24)COCC3)nc1 [Example 1, 2-(5-Fluoro-2-pyridyl)-3-(1H-pyrrolo[2,3-b]pyridin-4-yl)-6,7-dihydro-4H-pyrazolo[5,1-c][1,4]oxazine] | 10 | 81
Fc1ccc(-c2nn3c(c2-c2ccnc4[nH]nc(Cl)c24)C[C@@H]2C[C@@H]23)nc1 [Example 271, (4aS,5aS)-3-(3-Chloro-1H-pyrazolo[3,4-b]pyridin-4-yl)-2-(5-fluoropyridin-2-yl)-4,4a,5,5a-tetrahydrocyclopropa[4,5]pyrrolo[1,2-b]pyrazole] | 2 | 4
Fc1ccc(-c2nn3c(c2-c2ccncc2)COCC3)cc1 [Example 369, 2-(4-Fluorophenyl)-3-(4-pyridyl)-6,7-dihydro-4H-pyrazolo[5,1-c][1,4]oxazine] | 12 | 96
[2H]C([2H])([2H])C1(C([2H])([2H])[2H])Cn2nc(-c3ccc(F)cn3)c(-c3ccnc(NC(=O)CC)c3)c2CO1 [Example 395, N-(4-(2-(5-Fluoropyridin-2-yl)-6,6-bis(methyl-d3)-6,7-dihydro-4H-pyrazolo[5,1-c][1,4]oxazin-3-yl)pyridin-2-yl)propionamide] | 2 | 21
